What was measured:
[1] = Published clinical trial data of RA drugs: ACR20/ACR50/ACR70 response, drug vs placebo; type: in vivo, human; conditions: for ACR20 Diff. / ACR50 Diff. / ACR70 Diff.: Type: Diff. (drug minus placebo), * significant difference > 15%; for Highest Significant Clinical Disease Remission Score: highest ACR level with significant difference > 15% over placebo
Description: In another embodiment, American College of Rheumatoid (ACR) scoring system and DAS28 scoring system are used to determine the extent of improvement in the RA disease symptoms on treatment with a drug.
In another embodiment, the ACR scoring system involves three main scores: ACR20 score pertaining to 20% improvement in the disease, ACR50 score pertaining to 50% improvement in the disease and ACR70 score pertaining to 70% improvement in the disease. Clinically, the calculation of the ACR score is dependent on inputs from a patient Health Assessment Questionnaire (HAQ) and analysis of the percentage improvement in the RA disease phenotypes. […]

[2] = Type: Drug; published clinical trial data; cited from earlier work

## CN(Cc1cnc2nc(N)nc(N)c2n1)c1ccc(C(=O)N[C@@H](CCC(=O)O)C(=O)O)cc1 [METHOTREXATE]
[1]
  ACR20 Diff.: 20%
  ACR50 Diff.: 15* %
  ACR70 Diff.: 5%
  Highest Significant Clinical Disease Remission Score: ACR50 (ACR50 score pertaining to 50% improvement in the disease)
[2]
  ACR20: 46%
  ACR50: 23%
  ACR70: 9%

## C[C@@H]1CCN(C(=O)CC#N)C[C@@H]1N(C)c1ncnc2[nH]ccc12 [TOFACITINIB]
[1]
  ACR20 Diff.: 66.5%
  ACR50 Diff.: 57.7%
  ACR70 Diff.: 20* %
  Highest Significant Clinical Disease Remission Score: ACR70 (ACR70 score pertaining to 70% improvement in the disease)

## ANAKINRA
[1]
  ACR20 Diff.: 16* %
  ACR50 Diff.: 9%
  ACR70 Diff.: 4%
  Highest Significant Clinical Disease Remission Score: ACR20 (ACR20 score pertaining to 20% improvement in the disease)
[2]
  ACR20: 38%
  ACR50: 17%
  ACR70: 6%

## DENOSUMAB
[1]
  ACR20 Diff.: <0%
  ACR50 Diff.: <0%
  ACR70 Diff.: <0%
  Highest Significant Clinical Disease Remission Score: Non
[2]
  ACR20: 23%
  ACR50: 9%
  ACR70: 1%

## ETANERCEPT
[1]
  ACR20 Diff.: 15%
  ACR50 Diff.: 29%
  ACR70 Diff.: 28* %
  Highest Significant Clinical Disease Remission Score: ACR70 (ACR70 score pertaining to 70% improvement in the disease)
[2]
  ACR20: 86%
  ACR50: 71%
  ACR70: 49%

## RITUXIMAB
[1]
  ACR20 Diff.: 26%
  ACR50 Diff.: 21%
  ACR70 Diff.: 15* %
  Highest Significant Clinical Disease Remission Score: ACR70 (ACR70 score pertaining to 70% improvement in the disease)
[2]
  ACR20: 54%
  ACR50: 34%
  ACR70: 20%

## SECUKINUMAB
[1]
  ACR20 Diff.: 23* %
  ACR50 Diff.: 12%
  ACR70 Diff.: 0%
  Highest Significant Clinical Disease Remission Score: ACR20 (ACR20 score pertaining to 20% improvement in the disease)
[2]
  ACR20: 54%
  ACR50: 27%
  ACR70: 12%

## TOCILIZUMAB
[1]
  ACR20 Diff.: 33%
  ACR50 Diff.: 24%
  ACR70 Diff.: 21* %
  Highest Significant Clinical Disease Remission Score: ACR70 (ACR70 score pertaining to 70% improvement in the disease)
[2]
  ACR20: 74%
  ACR50: 53%
  ACR70: 37%

B1: AMG714: RA drug with published clinical trial data, listed among various approved drugs (antibody, chains of the INN, looked up, V domains shown)
VH: EVQLVQSGAEVKKPGESLKISCKVSGYFFTTYWIGWVRQMPGKGLEYMGIIYPGDSDTRYSPSFQGQVTISADKSISTAYLQWSSLKASDTAMYYCARGGNWNCFDYWGQGTLVTVSS
VL: EIVLTQSPGTLSLSPGERATLSCRASQSVSSSYLAWYQQKPGQAPRLLIYGASRRATGIPDRFSGSGSGTDFTLTISRLEPEDFAVYYCQRYGSSHTFGQGTKLEIS
[1]
  ACR20 Diff.: 36* %
  ACR50 Diff.: 0%
  ACR70 Diff.: 0%
  Highest Significant Clinical Disease Remission Score: ACR20 (ACR20 score pertaining to 20% improvement in the disease)
[2]
  ACR20: 62%
  ACR50: 0%
  ACR70: 0%
